Data on one compound can be found in EP0019739A1, “2-Aminoalkyl-5-pyridinoles, process for their preparation and pharmaceutical preparations containing them” (CIBA-GEIGY AG, priority 1979, dated 1980).

SMILES strings stand for the structures.

The test is described as follows: Pharmacological activity, test not specified. Particulars: compared with the racemic dihydrochloride (starting material of Example 2) and the levorotatory salt.

For `CC(C)NC(C)Cc1ccc(O)cn1.Cl.Cl` (stereo not shown) [rechtsdrehende Antipode, 2-(2-Isopropylaminopropyl)-5-pyridinol-dihydrochlorid], the pharmakologisch aktiv entry is “weniger aktiv”.
